Source: patent US11579147B2, “Use of VNN1 as a biomarker and a therapeutic target in sarcomas” (INSERM (Institut National de la Santé et de la Recherche …, priority 2017, dated 2023)
“Also recorded” adds a separate entry of the source.

Tests used:
GSH levels = GSH levels in tumor tissue extracts; type: in vivo; settings: administration to tumor-bearing mice, data not shown
Text: (§1) Since pantetheinase hydrolyses pantetheine into pantothenate and cysteamine, we searched for more specific actions. We first focused on pantothenate which could be detected by LC-MS analysis. […] Accordingly, we found some significant variations in the levels of various metabolites involved in the regulation of the TCA cycle.

CoA levels = experiment: coenzyme A levels in tumors; type: in vivo; settings: administration to mice bearing R tumors
Text: as §1

[1] = tested on: various metabolites analyzed by LC-MS; experiment: LC-MS analysis of tumor metabolites; type: in vivo; settings: administration to tumor-bearing mice
Text: as §1

[2] = tested on: Ras expressing tumors (R); experiment: growth of tumors subcutaneously grafted in Nude mice; type: in vivo; settings: administered to grafted mice, FIG. 4
Text: The different tumors derived from three independent myofibroblast cell lines (J2A, H1 or I1) were subcutaneously grafted in Nude mice. […] Since pantetheinase activity releases pantothenate and cysteamine in vivo, we tested the effect of these compounds on in vitro and in vivo growth.

[3] = tested on: myofibroblast cell lines (J2A, H1 or I1); experiment: in vitro growth of Ras-transfected myofibroblast cell lines; type: cell-based, mouse; settings: data not shown
Text: Given the slow rate of tumor development and the rare emergence of STS in Vnn1+/+ mice, we developed new transplantable STS models. The different tumors derived from three independent myofibroblast cell lines (J2A, H1 or I1) were subcutaneously grafted in Nude mice. […] Since pantetheinase activity releases pantothenate and cysteamine in vivo, we tested the effect of these compounds on in vitro and in vivo growth.

[4] = tested on: collagen I or caveolin I genes; experiment: qRT-PCR of differentiation genes in enriched tumor cells depleted of CD45+ cells; type: in vivo, mice; settings: cysteamine-treated R tumor cells
Text: We then performed a similar analysis using RNA extracted from enriched R, cysteamine-treated R and VR tumor cells depleted of CD45+ hematopoietic cells. […] Therefore, Vnn1 expression is associated with a differentiated grade of tumors which is not recapitulated by CEA administration.

| SMILES | GSH levels in tissue extracts (GSH levels) | CoA levels in tumors (CoA levels) | impact on the various metabolites analyzed by LC-MS [1] | tumor growth in grafted mice [2] | growth of cell lines in vitro [3] | expression of collagen I or caveolin I genes [4] |
| --- | --- | --- | --- | --- | --- | --- |
| NCCS [cysteamine, 2-aminoethanethiol] | reduction in GSH levels | only moderately enhanced | could not detect a significant impact | inhibits tumor growth; also recorded: reduced the growth | reduced the growth of all cell lines | not able to induce the expression |
| CC(C)(CO)[C@@H](O)C(=O)NCCC(=O)O [pantothenate, 3-[(2R)-(2,4-Dihydroxy-3,3-dimethylbutanoyl)amino]propanoic acid] |  |  |  |  | no effect |  |
